According to patent publication US8809550B2, “Androgen receptor antagonists and uses thereof” (priority 2009, dated 2014):
pIC50: −log10 of the molar value. Read-outs that look alike come from different tables or passages of the source.

Tests used:
[1] = system: LNCaP cells; assay: Cell viability assay, LNCaP cells; format: cell-based; details: Homo sapiens, read-out: Inhibition of cell viability, LNCaP % inhibition at 2.5 uM
Experimental: (§1) LNCaP and 22RV1 cells were maintained in RPMI 1640 medium supplemented with 10% fetal bovine serum (FBS), 100 U/mL penicillin, 100 μg/mL streptomycin, and 0.25 μg/mL amphotericin B, splitting cells when they reached 80-90% confluence. In order to test compounds, 10,000 cells/well were plated in 96 cell culture plates using 100 ul/well plating medium, cultured overnight at 37° C. in a cell culture incubator. After carefully remove plating medium, 80 ul/well of pre-warmed assay medium was added, followed by adding 10 ul/well test compounds or bicalutamide (final concentration from 20 uM to 0.1 uM), incubated at 37° C. for 30 minutes, then adding 10 ul/well freshly prepared Methyltrienolone (R1881, AR agonist) (final concentration 1 ng/ml) to each well, incubate at 37° C. for 48-hour. At the end of incubation, 20 μl MTT (2.5 mg/ml in PBS) was added to each well, and the cells were further incubated for 2 h at 37 C to allow a complete reaction between the dye and the enzyme mitochondrial dehydrogenase in the viable cells. After removal of the residual dye and medium, 100 μl dimethylsulfoxide was added to each well, and the absorbance at 570 nm was measured with an microplate reader. The fold induction over background by 1 nM R1881 in the absence of test compounds is standardized as 100% and experimental result is expressed as percentage of inhibition by testing compounds at 2.5 micromolar (uM).

[2] = system: Prostate-specific Antigen (PSA) production in LNCaP cells; assay: PSA assay: inhibition of PSA production in LNCaP cells (ELISA); format: cell-based; details: Homo sapiens, 72 h, R1881 1 ng/ml, three days, seven point assay
Experimental: (§2) PSA Assay (Inhibition Test of the Compound of the Present Invention on Prostate-Specific Antigen (PSA) Production in Various Prostate Cancer Cells)
(§3) Androgen dependent LNCaP and 22RV1 cells were purchased from the American Type Culture Collection (ATCC, Manassas, Va.). These cells were grown in RPMI 1640 medium supplemented with 10% fetal bovine serum (FBS), 100 U/mL penicillin, 100 μg/mL streptomycin, and 0.25 μg/mL amphotericin B. The cells were maintained at 37° C. and 5% CO2. LNCaP cells between passage 20 and 35, and 22RV1 cells between passage 30 and 50 were used for experiments. LNCaP is a hormone sensitive cell line, while 22RV1 is a hormone refractory prostate cancer cell line, which derived from a primary prostate tumor. This cell line was isolated from a xenograft (CWR22R-2152) that was serially propagated in mice after castration-induced regression and relapse of the parental, androgen-dependent CWR xenograft. For the PSA assay, human prostate cancer cells LNCaP or 22RV1 were seeded in a 96-well plate at a concentration of 5000 cells/100 μl/well. On the following day, Methyltrienolone (R1881, AR agonist) (final concentration 1 ng/ml), test compounds or bicalutamide (Casodex®, AstraZeneca) (final concentration 0.005 to 20 μM) were added. Three days after the addition, the concentration of PSA in the supernatant of the culture solution was measured by ELISA. ELISAs for human PSA in culture medium were performed using the ultra-sensitive assay procedure and reagents in the Active™ PSA assay kit (Diagnostic Systems Laboratories Inc., Webster, Tex.). Culture medium and standards (200 μl/well) were incubated in antibody-coated plates for 2 h at room temperature on a Titer plate shaker at 500-600 rpm. Wells were then washed five times. The HRP conjugate was diluted 1:20 with assay buffer, and 100 μl was added to all wells. The plates were incubated for 30 min at room temperature on the shaker and washed as before, and 100 μl TMB (3,3′,5,5′-tetramethylbenzidine, 0.4 g/l) was added. The plates were incubated for 10 min on the shaker, and the reaction was terminated with 100 μl stop solution. The plates were read using a plate reader at 450 nm with a 650 nm reference filter. PSA levels were normalized for differences in growth of LNCaP or 22RV1 cells following various treatments as determined by the MTS assay. IC50 of PSA was calculated based on a seven point assay (concentrations of tested compound) and expressed as micromolar (uM). Results on 22RV1 cells are shown as percent inhibition at 2 micromolar (uM). ND means not determined

[3] = system: Prostate-specific Antigen (PSA) production in 22RV1 cells; assay: PSA assay: inhibition of PSA production in 22RV1 cells (ELISA); format: cell-based; details: Homo sapiens, 72 h, R1881 1 ng/ml, three days
Experimental: as §2
as §3, with “Results on 22RV1 cells are shown as percent inhibition at 2 micromolar (uM).” left out

[4] = system: 22RV1 cells; assay: Cell viability assay, 22RV1 cells; format: cell-based, human; details: Homo sapiens, read-out: Inhibition of cell viability, 22RV1 % inhibition at 2.5 uM
Experimental: as §1

[5] = LNCaP cells, 2.5 uM, R1881 1 ng/ml, 48-hour
[6] = 22RV1 cells, 2.5 uM, R1881 1 ng/ml, 48-hour

SMILES | cytotoxicity at 2.5 µM ([1]; LNCaP, 48 h) [%] | pIC50 [2] | inhibition at 2 µM [3] [%] | cytotoxicity at 2.5 µM ([4]; 22Rv1, 48 h) [%] | cytotoxicity at 2.5 µM [1, 5] [%] | cytotoxicity at 2.5 µM [4, 6] [%]
CNC(=O)c1ccc(N2C(=S)N(c3ccc(C#N)cc3Cl)C(=O)C23CCC3)cc1F [Example 1, 4-[7-(2-Chloro-4-cyano-phenyl)-8-oxo-6-thioxo-5,7-diaza-spiro[3.4]oct-5-yl]-2-fluoro-N-methyl-benzamide] | 70 | 5.62 | 48 | 31 |  | 
CNC(=O)c1ccc(N2C(=S)N(c3ccc(C#N)c(OC)c3)C(=O)C23CCC3)cc1F [Example 2, 4-[7-(4-Cyano-3-methoxy-phenyl)-8-oxo-6-thioxo-5,7-diaza-spiro[3.4]oct-5-yl]-2-fluoro-N-methyl-benzamide] | 59 | 6.35 | 47 | 41 |  | 
CNC(=O)c1ccc(N2C(=S)N(c3ccc(C#N)c(Cl)c3F)C(=O)C23CCC3)cc1F [Example 8, 4-[7-(3-Chloro-4-cyano-2-fluoro-phenyl)-8-oxo-6-thioxo-5,7-diaza-spiro[3.4]oct-5-yl]-2-fluoro-N-methyl-benzamide] | 86 | 6.07 | 77 | 59 |  | 
CNC(=O)c1ccc(N2C(=S)N(c3ccc(C#N)c(C(F)(F)F)c3F)C(=O)C23CCC3)cc1F [Example 10, 4-[7-(4-Cyano-2-fluoro-3-trifluoromethyl-phenyl)-8-oxo-6-thioxo-5,7-diaza-spiro[3.4]oct-5-yl]-2-fluoro-N-methyl-benzamide] | 91 | 6.42 | 78 | 69 |  | 
CNC(=O)c1ccc(N2C(=S)N(c3ccc(C#N)c(Cl)c3F)C(=O)C2(C)C)cc1F [Example 11, 4-[3-(3-Chloro-4-cyano-2-fluoro-phenyl)-5,5-dimethyl-4-oxo-2-thioxo-imidazolidin-1-yl]-2-fluoro-N-methyl-benzamide] | 85 | 6.64 | 81 | 56 |  | 
CC1(C)C(=O)N(c2ccc(C#N)c(Cl)c2F)C(=S)N1c1ccc(C#N)cc1 [Example 18, 4-(4,4-Dimethyl-5-oxo-2-thioxo-3-p-cyanophenyl-imidazolidin-1-yl)-3-fluoro-2-chloro-benzonitrile] | 91 | 7.04 | 89 | 57 |  | 
COc1c(C#N)ccc(N2C(=O)C(C)(C)N(c3ccc(F)cc3)C2=S)c1F [Example 19, 3-Fluoro-4-[3-(4-fluoro-phenyl)-4,4-dimethyl-5-oxo-2-thioxo-imidazolidin-1-yl]-2-methoxy-benzonitrile] |  | 6.54 | 72 |  | 87 | 63
COc1c(C#N)ccc(N2C(=O)C(C)(C)N(c3ccc(C)nc3)C2=S)c1F [Example 20, 4-[4,4-Dimethyl-3-(6-methyl-pyridin-3-yl)-5-oxo-2-thioxo-imidazolidin-1-yl]-3-fluoro-2-methoxy-benzonitrile] | 68 | 6.55 | 69 | 44 |  | 
Cc1ccc(N2C(=S)N(c3ccc(C#N)c(C#N)c3)C(=O)C2(C)C)cc1 [Example 24, 4-(4,4-Dimethyl-5-oxo-2-thioxo-3-p-tolyl-imidazolidin-1-yl)-phthalonitrile] | 47 | 6.70 | 91 | 27 |  | 
COc1c(C#N)ccc(N2C(=O)C(C)(C)N(c3ccc(C#N)cc3)C2=S)c1F [Example 32, 4-(4,4-Dimethyl-5-oxo-2-thioxo-3-p-cyanophenyl-imidazolidin-1-yl)-3-fluoro-2-methoxy-benzonitrile] |  | 6.92 | 88 |  | 87 | 64
